Laboratory results: patent US5026711A, “4-amino quinolines and naphthyridines and their use as medicines” (priority 1988, dated 1991)
Where two headings read alike, the source gives them in different places.

Experiments:
[1] = molecular target: T1, benzodiazepine receptors of the peripheral type (Felis catus, UniProt A0ABI7ZQW3); experiment: inhibition of specific binding of [3H] PK11195 to peripheral type benzodiazepine receptors, membrane proteins of cat brain
T1 sequence (A0ABI7ZQW3 15-183): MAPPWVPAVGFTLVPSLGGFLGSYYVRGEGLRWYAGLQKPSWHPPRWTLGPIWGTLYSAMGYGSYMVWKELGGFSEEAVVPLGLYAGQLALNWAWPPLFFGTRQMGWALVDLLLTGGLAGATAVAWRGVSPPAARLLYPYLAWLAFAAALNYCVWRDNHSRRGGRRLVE
Method: The method is similar to that described by J. Benavides et al. in Brain Res. Bull. 13 p. 69-77 (1984) and references cited therein.
Suspensions of membrane proteins of cat brain were prepared as described by J. Benavides.
The assays of inhibition of the binding of [^3 H]
Non specific binding was defined as the amount of [^3 H]

[2] = system: receptors of the peripheral type; experiment: in vivo inhibition of [3H] PK11195 binding to peripheral type receptors in organs of the mouse
Method: The assays were carried out in the mouse by using the binder [^3 H]
The products to be tested are administered orally in suspension in an aqueous solution of carboxymethylcellulose (1% wt/v) to groups of 4 mice 35 mn before the intravenous injection of [^3 H] […] 5 mn after the injection the animals are sacrificed by decapitation and the different organs are removed and ground in 10 ml Tris-HCl buffer (50 mM; pH=7.4) to give homogenates.
The control groups only received the carboxymethylcellulose solution and the injection of [^3 H]
A determination was made for each organ by means of scintigraphy of:
1--the amount of radioactive binder present in an organ by measuring the radioactivity of an aliquot of the homogenate.
2--the amount of radioactive binder bound to the membrane tissues of an organ by measuring the radioactivity bound on a fiber glass filter after filtration of another aliquot of the homogenate.
3--the amount of radioactive binder bound non-specifically to the membrane tissues by incubating a control homogenate with an excess of RO5-4864, a known binder, followed by binding of the membranes to a filter and measurement of the radioactivity remaining on the membranes.
The inhibition of specific binding, recorded as SB, is equal to the difference between the radioactivity measurements 2 and 3 divided by measurement 1.
The percentages of inhibition of the binding in different organs determined for compounds of the invention and the reference substances are shown in table VI; they are given by the formula: [formula]

[3] = system: central benzodiazepine receptors; experiment: inhibition of specific binding of [3H] flunitrazepam to central benzodiazepine receptors, rat brain; conditions: 4° C., pH 7.4
Method: (b) determination of the concentration of the product under study inhibiting 50% of the specific binding of flunitrazepam to the central receptors.
The brains of rats were removed after decapitation and ground, then placed in suspension in an aqueous solution of sucrose (0.32M). The mixture is centrifuged and the pellet is resuspended to give a homogenous suspension in a TRIS-HCl buffered solution (50 mM; pH=7.4). Aliquots of this suspension are incubated at 4° C. after addition of [^3 H] flunitrazepam, alone or with increasing amounts of the compound to be tested.

[4] = oral acute toxicity in the mouse (LD50); type: in vivo; conditions: 500 mg/kg
Method: The compounds of Examples 3, 67, 90, 107 and 114 are atoxic at the dose of 500 mg/kg in the mouse.

[5] = [3H] PK11195 0.5 nM, cat brain membranes, 4° C., 2h30; read-out: IC50 (peripheral)

CCC(C)N(C)C(=O)c1cc2ccccc2c(-c2ccccc2Cl)n1 (stereo not shown) [PK11195, 1-(2-chlorophenyl) 3-(N-methyl N-methylpropyl) carbamoyl isoquinoline, reference compound]
IC50 [1, 5]: 0.0013 µM | % Inhibition, brain ([2]; 15 mg/kg oral): 71% | % Inhibition, heart ([2]; 15 mg/kg oral): 27% | % Inhibition, kidney ([2]; 15 mg/kg oral): 54% | % Inhibition, spleen ([2]; 15 mg/kg oral): 29% | % Inhibition, thymus ([2]; 15 mg/kg oral): 30%

CN1C(=O)CN=C(c2ccc(Cl)cc2)c2cc(Cl)ccc21 [R05-4864, 7-chloro 1,3-dihydro 1-methyl 5-(4-chlorophenyl) 1,4-2H-benzodiazepine 2-one, reference compound]
IC50 ([1]; read-out: IC50 (peripheral); [3H] PK11195 0.5 nM, cat brain membranes, 4° C., 2h30): 0.044 µM | IC50 (central) [3]: inactive | % Inhibition, brain ([2]; 15 mg/kg oral): 74% | % Inhibition, heart ([2]; 15 mg/kg oral): 27% | % Inhibition, kidney ([2]; 15 mg/kg oral): 73% | % Inhibition, spleen ([2]; 15 mg/kg oral): 11% | % Inhibition, thymus ([2]; 15 mg/kg oral): 28%

CCCN(CCC)C(=O)C(C)Nc1c(C(=O)OCC)cnc2ccc(Cl)cc12 (stereo not shown) [SR 26058]
atoxic at the dose of 500 mg/kg [4]: atoxic

CN(C(=O)CNc1c(C(=O)c2ccccc2)cnc2cccnc12)c1ccc(Cl)cc1 [compound 26276]
IC50 [1, 5]: 0.0003 µM | IC50 [3]: 13.4 µM | % Inhibition, brain ([2]; 8 mg/kg oral): 78% | % Inhibition, heart ([2]; 8 mg/kg oral): 30% | % Inhibition, kidney ([2]; 8 mg/kg oral): 69% | % Inhibition, spleen ([2]; 8 mg/kg oral): 37% | % Inhibition, thymus ([2]; 8 mg/kg oral): 34%

CCCN(CCC)C(=O)C(C)Nc1c(C(=O)OCC)cnc2cc(Cl)ccc12 (stereo not shown) [compound 26310]
IC50 [1, 5]: 0.001 µM | IC50 [3]: > 20 µM | % Inhibition, brain ([2]; 25 mg/kg oral): 76% | % Inhibition, heart ([2]; 25 mg/kg oral): 39% | % Inhibition, kidney ([2]; 25 mg/kg oral): 32% | % Inhibition, spleen ([2]; 25 mg/kg oral): 52% | % Inhibition, thymus ([2]; 25 mg/kg oral): 31%

CN(C(=O)CNc1c(C(=O)c2ccccc2)cnc2cc(Cl)ccc12)c1ccc(Cl)cc1 [compound 26412]
IC50 [1, 5]: 0.0004 µM | IC50 [3]: > 10 µM | % Inhibition, brain ([2]; 25 mg/kg oral): 79% | % Inhibition, spleen ([2]; 25 mg/kg oral): 62%

CN(C(=O)CNc1c(C(=O)c2ccccc2)cnc2ccc(Cl)cc12)c1ccc(Cl)cc1 [compound 26620]
IC50 [1, 5]: 0.0028 µM | IC50 [3]: > 10 µM

CCCN(CCC)C(=O)C(C)Nc1c(C(=O)O)cnc2cc(Cl)ccc12 (stereo not shown) [compound 26632]
IC50 [1, 5]: 0.101 µM | IC50 [3]: > 20 µM

CN(C(=O)CNc1c(C(=O)c2ccccc2)cnc2nc(Cl)ccc12)c1ccccc1Cl [compound 26640]
IC50 [1, 5]: 0.046 µM | IC50 [3]: 3.55 µM

CCCN(CCC)C(=O)C(C)Nc1c(C(=O)OCC)cnc2cc(OC)c(OC)cc12 (stereo not shown) [compound 26641]
IC50 [1, 5]: 0.356 µM | IC50 [3]: > 20 µM

CN(C(=O)CNc1c(C(=O)c2cccnc2)cnc2cc(Cl)ccc12)c1ccc(Cl)cc1 [compound 26643]
IC50 [1, 5]: 0.0012 µM | IC50 [3]: > 10 µM

CN(C(=O)CNc1c(C(=O)c2ccccc2)cnc2cccnc12)c1ccccc1Cl [compound 26651]
IC50 [1, 5]: 0.00093 µM | IC50 [3]: 8.49 µM

CN(C(=O)CNc1c(C(=O)c2ccccc2)cnc2cc(Cl)ccc12)c1ccc(Cl)c(Cl)c1 [compound 26676]
IC50 [1, 5]: 0.0011 µM | IC50 [3]: > 10 µM

COc1ccc2ncc(C(=O)c3ccccc3)c(NCC(=O)N(C)c3ccc(Cl)cc3)c2n1 [compound 26698]
IC50 [1, 5]: 0.00195 µM | IC50 [3]: > 10 µM

CN(C(=O)CNc1c(C(=O)c2ccccc2)cnc2cc(F)ccc12)c1ccc(Cl)cc1 [compound 26706]
IC50 [1, 5]: 0.004 µM | IC50 [3]: > 10 µM

CN(C(=O)CNc1c(C(=O)c2ccccc2)cnc2cccnc12)c1ccc(Cl)c(Cl)c1 [compound 26708]
IC50 [1, 5]: 0.0028 µM | IC50 [3]: > 10 µM

CN(CC(=O)N(C)c1ccc(Cl)cc1)c1c(C(=O)c2ccccc2)cnc2cccnc12 [compound 26710]
IC50 [1, 5]: 0.0032 µM | IC50 [3]: > 10 µM

CN(C(=O)CCNc1c(C(=O)c2ccccc2)cnc2cccnc12)c1ccc(Cl)cc1 [compound 26731]
IC50 [1, 5]: 0.00274 µM | IC50 [3]: > 10 µM

CN(C(=O)CNc1c(C(=O)c2ccccc2)cnc2cc(Cl)ccc12)c1ccc(C(F)(F)F)cc1 [compound 26778]
IC50 [1, 5]: 0.027 µM | IC50 [3]: > 10 µM

CN(C(=O)CNc1c(C(=O)c2ccccc2)cnc2cc(C(F)(F)F)ccc12)c1ccc(Cl)cc1 [compound 26794]
IC50 [1, 5]: 0.011 µM | IC50 [3]: > 10 µM

CN(C(=O)CNc1c(C(=O)c2ccccc2)cnc2cccnc12)c1ccccc1 [compound 26803]
IC50 [1, 5]: 0.0071 µM | IC50 [3]: 5.43 µM

CN(C(=O)CNc1c(C(=O)c2ccccc2)cnc2cc(Cl)cnc12)c1ccc(Cl)cc1 [compound 26830]
IC50 [1, 5]: 0.00013 µM | IC50 [3]: > 10 µM | % Inhibition, brain ([2]; 25 mg/kg oral): 64% | % Inhibition, spleen ([2]; 25 mg/kg oral): 26%

CN(C(=O)CNc1c(C(=O)c2ccccc2)c[n+]([O-])c2cccnc12)c1ccc(Cl)cc1 [compound 26838]
IC50 [1, 5]: 0.0108 µM | IC50 [3]: 7.65 µM

CN(CC(=O)N(C)c1ccc(Cl)cc1)c1c(C(=O)c2ccccc2)cnc2cc(Cl)ccc12 [compound 26841]
IC50 [1, 5]: 0.017 µM | IC50 [3]: > 10 µM

COc1ccc(N(C)C(=O)CNc2c(C(=O)c3ccccc3)cnc3cc(Cl)ccc23)cc1 [compound 26846]
IC50 [1, 5]: 0.0029 µM | IC50 [3]: > 10 µM | % Inhibition, brain ([2]; 25 mg/kg oral): 91% | % Inhibition, spleen ([2]; 25 mg/kg oral): 80%

CN(C(=O)CNc1c(C(=O)c2ccccc2)cnc2cccnc12)c1ccc(C(F)(F)F)cc1 [compound 26847]
IC50 [1, 5]: 0.00159 µM | IC50 [3]: > 10 µM

CCN(C(=O)CNc1c(C(=O)c2ccccc2)cnc2cccnc12)c1ccc(Cl)cc1 [compound 26858]
IC50 [1, 5]: 0.00077 µM | IC50 [3]: > 10 µM | % Inhibition, brain ([2]; 25 mg/kg oral): 95% | % Inhibition, spleen ([2]; 25 mg/kg oral): 84%

CCCN(CCC)C(=O)CC(C)Nc1c(C(=O)OCC)cnc2cc(Cl)cnc12 (stereo not shown) [compound 26869]
IC50 [1, 5]: 0.172 µM | IC50 [3]: > 20 µM

CN(C(=O)CNc1c(C(=O)c2ccccc2)cnc2cc(Br)ccc12)c1ccc(Cl)cc1 [compound 26876]
IC50 [1, 5]: 0.0005 µM | IC50 [3]: > 10 µM | % Inhibition, brain ([2]; 25 mg/kg oral): 84% | % Inhibition, spleen ([2]; 25 mg/kg oral): 64%

CN(C(=O)CNc1c(C(=O)c2ccccc2)cnc2cc(Cl)c(Cl)nc12)c1ccc(Cl)cc1 [compound 26918]
IC50 [1, 5]: 0.00016 µM | IC50 [3]: 1.68 µM

CN(C(=O)CNc1c(C(=O)c2ccccc2)cnc2cnccc12)c1ccc(Cl)cc1 [compound 26919]
IC50 [1, 5]: 0.052 µM | IC50 [3]: > 10 µM

CCCN(CCC)C(=O)C(C)Nc1c(C(=O)OCC)cnc2cc(F)ccc12 (stereo not shown) [compound 26920]
IC50 [1, 5]: 0.018 µM | IC50 [3]: > 20 µM

CN(C(=O)CNc1c(C(=O)c2ccccc2)cnc2cccnc12)c1c(Cl)cccc1Cl [compound 26947]
IC50 [1, 5]: 0.00079 µM | IC50 [3]: 18.6 µM

Cc1ccc(N(C)C(=O)CNc2c(C(=O)c3ccccc3)cnc3cccnc23)cc1 [compound 26980]
IC50 [1, 5]: 0.00131 µM | IC50 [3]: 9.75 µM

COc1ccc(C(=O)c2cnc3cccnc3c2NCC(=O)N(C)c2ccc(Cl)cc2)cc1 [compound 27153]
IC50 [1, 5]: 0.00162 µM | IC50 [3]: 47.9 µM | % Inhibition, brain ([2]; 25 mg/kg oral): 87% | % Inhibition, spleen ([2]; 25 mg/kg oral): 52%

COc1ccc(N(C)C(=O)CNc2c(C(=O)c3ccccc3)cnc3cccnc23)cc1 [compound 27161]
IC50 [1, 5]: 0.0023 µM | IC50 [3]: > 10 µM | % Inhibition, brain ([2]; 25 mg/kg oral): 92% | % Inhibition, spleen ([2]; 25 mg/kg oral): 78%

C=CCN(C(=O)CNc1c(C(=O)c2ccccc2)cnc2cccnc12)c1ccc(Cl)cc1 [compound 27181]
IC50 [1, 5]: 0.00089 µM | IC50 [3]: > 10 µM

COc1ccc(N(C)C(=O)CNc2c(C(=O)c3ccccc3)cnc3cc(Br)ccc23)cc1 [compound 27195]
IC50 [1, 5]: 0.001 µM | IC50 [3]: > 10 µM

COc1ccc(N(C)C(=O)CNc2c(C(=O)c3ccccc3)cnc3cc(Cl)ccc23)cc1 [compound 27196]
IC50 [1, 5]: 0.0008 µM | IC50 [3]: > 10 µM

CCOc1ccc(N(C)C(=O)CNc2c(C(=O)c3ccccc3)cnc3cc(Cl)ccc23)cc1 [compound 27271]
IC50 [1, 5]: 0.068 µM | IC50 [3]: > 10 µM
